ChEMBL document CHEMBL1133642, “Difluoro ketone peptidomimetics suggest a large S1 pocket for Alzheimer's gamma-secretase: implications for inhibitor design” (J Med Chem, 2000)

Key:
[1] = Concentration required for 50% inhibition of Amyloid beta protein production in Amyloid precursor protein (APP)-transfected Chinese hamster ovary(CHO) cells; type: functional; conditions: Cricetulus griseus
[2] = Inhibition of Amyloid beta protein production at 25 uM in Amyloid precursor protein (APP)-transfected Chinese hamster ovary(CHO) cells; type: functional; conditions: Cricetulus griseus

SMILES | IC50 [1] [µM] | inhibition at 25 µM [2] [%]
CCC(C)[C@H](NC(=O)[C@@H](NC(=O)C(F)(F)C(=O)[C@H](CC1CCCCC1)NC(=O)[C@@H](NC(=O)OC(C)(C)C)C(C)C)C(C)C)C(=O)OCc1ccccc1 (stereo partly specified) | 6 | 
CCC(C)[C@H](NC(=O)[C@@H](NC(=O)C(F)(F)C(=O)[C@H](C)NC(=O)[C@@H](NC(=O)OC(C)(C)C)C(C)C)C(C)C)C(=O)N(C)C (stereo partly specified) | 25 | 
CCC(C)[C@H](NC(=O)[C@@H](NC(=O)C(F)(F)C(=O)[C@H](CC1CCCCC1)NC(=O)[C@@H](NC(=O)OC(C)(C)C)C(C)C)C(C)C)C(=O)OC (stereo partly specified) | 4 | 
CCC(C)[C@H](NC(=O)[C@@H](NC(=O)C(F)(F)C(=O)[C@H](C)NC(=O)[C@@H](NC(=O)OC(C)(C)C)C(C)C)C(C)C)C(=O)OCc1ccccc1 (stereo partly specified) | 4 | 
CCC(C)[C@H](NC(=O)[C@@H](NC(=O)C(F)(F)C(=O)[C@H](C)NC(=O)[C@@H](NC(=O)OC(C)(C)C)C(C)C)C(C)C)C(=O)NC (stereo partly specified) | < 100 | 
CCC(C)[C@H](NC(=O)[C@@H](NC(=O)C(F)(F)C(=O)[C@@H](NC(=O)[C@@H](NC(=O)OC(C)(C)C)C(C)C)C(C)C)C(C)C)C(=O)OC (stereo partly specified) | 9 | 
CCC(C)[C@H](NC(=O)[C@@H](NC(=O)C(F)(F)C(=O)[C@@H](NC(=O)[C@@H](NC(=O)OC(C)(C)C)C(C)C)c1ccccc1)C(C)C)C(=O)OC (stereo partly specified) | 9 | 
CCC(C)[C@H](NC(=O)[C@@H](NC(=O)C(F)(F)C(=O)[C@@H](NC(=O)[C@@H](NC(=O)OC(C)(C)C)C(C)C)C(C)CC)C(C)C)C(=O)OC (stereo partly specified) | 6 | 
CCC(C)[C@H](NC(=O)[C@@H](NC(=O)C(F)(F)C(=O)[C@H](C)NC(=O)[C@@H](NC(=O)OC(C)(C)C)C(C)C)C(C)C)C(=O)OC (stereo partly specified) | 15 | ≥ 65
CCOC(=O)[C@@H](NC(=O)[C@@H](NC(=O)C(F)(F)C(=O)[C@H](C)NC(=O)[C@@H](NC(=O)OC(C)(C)C)C(C)C)C(C)C)C(C)CC (stereo partly specified) | 9 | 
